Experimental data as given in PubChem BioAssay AID588764 (Broad Institute, 2011).
Results filed as inconclusive are left out. Calls of active or inactive are those of the source. How the calls were made is not given here.

Target: Histone acetyltransferase RTT109 (Candida albicans (strain SC5314 / ATCC MYA-2876)) (UniProt Q5AAJ8)
Test: C. albicans Rtt109 HAT inhibition curves – biochemical, cherry-picked hits, plate reader, dose response (AID 588764);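 on activity change, negative = inhibition: 0% = neutral control wells and -100% = no enzyme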
Conditions: Rtt109/Vps75 HAT activity; for activity change, negative = inhibition: at 19.5 µM (top of the series)

Sequence of Histone acetyltransferase RTT109 (Candida albicans (strain SC5314 / ATCC MYA-2876)) (Q5AAJ8 whole entry, looked up): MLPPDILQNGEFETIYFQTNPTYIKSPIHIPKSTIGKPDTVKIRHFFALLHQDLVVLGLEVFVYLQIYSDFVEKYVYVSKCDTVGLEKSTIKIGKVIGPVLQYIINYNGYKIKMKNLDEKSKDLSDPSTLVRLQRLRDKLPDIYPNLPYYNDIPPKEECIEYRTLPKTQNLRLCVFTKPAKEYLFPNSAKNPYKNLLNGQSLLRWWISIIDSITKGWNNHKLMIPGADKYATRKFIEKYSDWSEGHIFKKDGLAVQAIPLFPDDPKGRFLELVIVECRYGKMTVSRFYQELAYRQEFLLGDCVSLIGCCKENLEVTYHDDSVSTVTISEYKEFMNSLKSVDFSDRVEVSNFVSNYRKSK

SMILES	activity change, negative = inhibition	AC50 [µM]
CCCCCCCCCn1c2c(c(=N)c3c1CCC3)CCC2	inactive	
O=C(Nc1ccc(O)c(-c2nc3ccccc3s2)c1)c1cc(=O)c2ccccc2o1	inactive	
CC(=O)c1cccc(S(=O)(=O)N2CCC(C(=O)O)CC2)c1	inactive	
COc1cccc(-c2ccc(C#N)c(SCC(=O)NCCc3ccc(Cl)cc3)n2)c1	inactive	
COc1ccc(S(=O)(=O)N(C)C)cc1NC(=O)Cc1ccc(S(=O)(=O)N2CCOCC2)s1	inactive	
Cc1ccc(CN2CCN(CC(=O)NCc3ccccc3)CC2)cc1	inactive	
O=S(=O)(c1ccc(Cl)cc1)N1CCN(c2ncccn2)CC1	inactive	
Cc1ccccc1C(=O)NCCNC(=O)c1ccco1	inactive	
CC#CCN(CC#CC)S(=O)(=O)c1ccc(-n2cnnn2)c(OC)c1	inactive	
O=C(Cc1ccc(F)cc1)Nc1cccc2cccnc12	inactive	
COc1ccc(-n2nc3c(c2NC(=O)c2ccc(N4C(=O)CCC4=O)cc2)CSC3)cc1	inactive	
O=C(OCc1ccc(Br)cc1)c1ccncc1	inactive	
CN(C)c1ccc(NC(=O)/C=C/c2ccccc2Cl)cc1	inactive	
CCOC(=O)C(=Cc1cc(=O)c(OC)co1)C(=O)OCC		10.7
Cc1ccc2sc(NNC(=O)C3=COCCO3)nc2c1C	inactive	
CN(c1ccc(C(=O)Nc2ccc3c(c2)OCO3)cc1)S(C)(=O)=O	inactive	
Cc1nn(C2CCS(=O)(=O)C2)c2nc(C3CC3)cc(C(=O)Nc3ccc(C(N)=O)cc3)c12 (stereo unspecified)	inactive	
CC1(C)C2CCC1(C)C(OCC[N+](C)(C)CC(=O)OC1CCCCC1)C2 (stereo unspecified)	inactive	

SMILES	activity change, negative = inhibition	AC50 [µM]
COCCN1Cc2cccc(C(=O)Nc3ccc(-c4nc5ccccc5[nH]4)cc3)c2C1=O	inactive	
CC1(C)CC2(CC(c3ccccc3F)c3ccc(O)c(O)c3O2)NC(=S)N1 (stereo unspecified)		19.7
COc1ccccc1NC(=O)CSC(N)=O	inactive	
CC(C)OC(=O)N(C)c1ccc(C(O)(C(F)(F)F)C(F)(F)F)cc1	inactive	
O=C(O)c1cccc(-n2sc3ccccc3c2=O)c1		10.5
CCOC(=O)C1=C(C)N=c2s/c(=C\c3ccc(OCC(=O)O)cc3)c(=O)n2C1c1ccc(OC(C)C)cc1 (stereo unspecified)	inactive	
COc1ccccc1C(=O)Nc1ccc(OCC(=O)N2CC(C)CC(C)C2)cc1 (stereo unspecified)	inactive	
COc1ccc(-n2sc3ccc(F)cc3c2=O)cc1		6
CC(C)C[C@@H]1CN=C(N)N1C[C@@H]1CCCN1C[C@H](C)N1C[C@@H](Cc2ccccc2)N(CCc2ccc(Cl)c(Cl)c2)C1=N	inactive	
Fc1ccc(C2CC(c3ccco3)=Nc3ccccc3S2)cc1 (stereo unspecified)	inactive	
O=C(Nc1nc(-c2nc3ccccc3s2)cs1)c1ccc(S(=O)(=O)N2CCOCC2)cc1	inactive	
Cc1c(C(=O)N2CCC[C@H]2CO)oc2c(F)cccc12	inactive	
CC1Cc2ccccc2N1C(=O)COC(=O)c1ccc(O)cc1 (stereo unspecified)	inactive	
CC1=C(C)/C(=N\OS(=O)(=O)c2ccc(C)cc2)C=CC1=O		8.6
CC(=O)Nc1ccc(NC(=O)c2nc(S(=O)(=O)Cc3ccccc3)ncc2Cl)cc1		6.3
CCOC(=O)N1CCN(Cc2c(O)ccc3ccccc23)CC1		18.8
Cc1cc(C)c2c(=O)n(CC(=O)N3CCC(N4CCCCC4)CC3)sc2n1		4.72
COc1ccc(-c2nc(-c3cccs3)no2)cc1	inactive	
